The text below walks through data of patent publication US9872875B2, “Component and method for treating viral disease” (Institut Pasteur of Shanghai, Chinese Academy of Sciences, priority 2012, dated 2018).

Where a name gives a salt, the structure may show the parent alone. Read-outs that look alike come from different tables or passages of the source. Ends that are not written are not given here.

For assay [1], the system named is EV71. Kind of assay: Effects of other antagonists and agonists on EV71 (Table 9). Type of assay: cell-based, Enterovirus 71. More on the design: key: “NO” indicates there is negative.
The target of assay [2] is T1, P2X7 receptor (Homo sapiens, UniProt Q99572).
T1 sequence (Q99572 1-595): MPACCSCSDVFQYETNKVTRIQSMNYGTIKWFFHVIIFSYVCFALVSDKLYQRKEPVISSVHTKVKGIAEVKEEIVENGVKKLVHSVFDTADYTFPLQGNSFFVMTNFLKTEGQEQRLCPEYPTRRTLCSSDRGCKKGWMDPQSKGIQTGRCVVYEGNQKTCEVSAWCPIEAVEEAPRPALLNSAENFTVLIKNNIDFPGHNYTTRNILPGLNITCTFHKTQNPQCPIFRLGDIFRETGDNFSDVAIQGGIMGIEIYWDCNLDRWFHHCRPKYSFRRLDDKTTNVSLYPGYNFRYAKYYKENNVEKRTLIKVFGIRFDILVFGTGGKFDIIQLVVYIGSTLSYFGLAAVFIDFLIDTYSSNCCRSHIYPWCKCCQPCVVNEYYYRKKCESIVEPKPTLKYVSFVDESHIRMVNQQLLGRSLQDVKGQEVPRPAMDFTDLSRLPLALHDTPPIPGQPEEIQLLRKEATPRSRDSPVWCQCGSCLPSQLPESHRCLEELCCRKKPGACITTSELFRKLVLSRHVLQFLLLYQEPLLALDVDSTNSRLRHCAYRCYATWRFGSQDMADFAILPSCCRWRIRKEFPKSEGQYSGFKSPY
The following applies: cited from earlier work.

For assay [3], the system named is EV71. Nature of the assay: Inhibition of EV71 replication in RD cells at 0.1, 1, 10 and 100 μM (CPE, crystal violet). Type of assay: cell-based, Enterovirus 71. The following applies: for Inhibition of EV71 replication: Table 8, antagonists. The protocol: Inhibitory effect of each P2X receptor antagonists and agonists on EV71 replication was measured at 0.1, 1, 10, and 100 μM. Specific procedures refer to “1” of Example 1. after infection, however, cells need to be incubated for 3˜4 days, stained with crystal violet, and observed under optical microscope to determine whether or not CPE (cytopathic effect) was present. In addition, the effect of compounds at each concentration on cytotoxicity to RD cells was determined. After culturing RD cells in various concentrations of compounds for 3˜4 days, stained with crystal violet, and observed under optical microscope to observe whether or not cell layer was damaged. Compounds capable of protecting cells from infection without damage of healthy cell layer can inhibit EV71 replication in RD cells.

The target of assay [4] is T2, P2X2 receptor (Homo sapiens, UniProt Q9UBL9).
T2 sequence (Q9UBL9 1-471): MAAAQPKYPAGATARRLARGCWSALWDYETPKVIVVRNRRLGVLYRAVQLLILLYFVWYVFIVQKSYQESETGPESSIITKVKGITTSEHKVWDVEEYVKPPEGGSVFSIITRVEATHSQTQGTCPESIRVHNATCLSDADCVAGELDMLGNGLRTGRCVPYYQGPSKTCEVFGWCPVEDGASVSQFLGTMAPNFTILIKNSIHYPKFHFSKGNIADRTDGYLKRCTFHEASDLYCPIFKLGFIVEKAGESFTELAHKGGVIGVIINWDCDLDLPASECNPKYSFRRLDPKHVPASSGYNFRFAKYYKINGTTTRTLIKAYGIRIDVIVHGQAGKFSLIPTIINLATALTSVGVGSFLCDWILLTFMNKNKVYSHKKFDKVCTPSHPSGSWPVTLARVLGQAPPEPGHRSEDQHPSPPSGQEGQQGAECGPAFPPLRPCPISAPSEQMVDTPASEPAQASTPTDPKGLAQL
The note with it: cited from earlier work.

Assay [5] has as its target T3, P2X3 receptor (Homo sapiens, UniProt P56373).
T3 sequence (P56373 1-397): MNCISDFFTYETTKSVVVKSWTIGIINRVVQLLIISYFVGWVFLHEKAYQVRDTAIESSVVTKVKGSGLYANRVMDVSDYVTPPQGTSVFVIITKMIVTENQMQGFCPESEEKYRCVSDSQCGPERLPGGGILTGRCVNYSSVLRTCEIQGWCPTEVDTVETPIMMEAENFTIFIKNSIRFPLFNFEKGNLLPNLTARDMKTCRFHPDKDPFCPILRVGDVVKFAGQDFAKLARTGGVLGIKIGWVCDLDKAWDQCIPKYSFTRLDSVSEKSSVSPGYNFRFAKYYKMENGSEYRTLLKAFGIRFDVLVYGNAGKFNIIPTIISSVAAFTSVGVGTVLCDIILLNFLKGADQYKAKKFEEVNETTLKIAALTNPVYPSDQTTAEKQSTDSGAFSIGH
The following applies: cited from earlier work.

The target in assay [6] is T4, P2X1 receptor (Homo sapiens, UniProt P51575).
T4 sequence (P51575 1-399): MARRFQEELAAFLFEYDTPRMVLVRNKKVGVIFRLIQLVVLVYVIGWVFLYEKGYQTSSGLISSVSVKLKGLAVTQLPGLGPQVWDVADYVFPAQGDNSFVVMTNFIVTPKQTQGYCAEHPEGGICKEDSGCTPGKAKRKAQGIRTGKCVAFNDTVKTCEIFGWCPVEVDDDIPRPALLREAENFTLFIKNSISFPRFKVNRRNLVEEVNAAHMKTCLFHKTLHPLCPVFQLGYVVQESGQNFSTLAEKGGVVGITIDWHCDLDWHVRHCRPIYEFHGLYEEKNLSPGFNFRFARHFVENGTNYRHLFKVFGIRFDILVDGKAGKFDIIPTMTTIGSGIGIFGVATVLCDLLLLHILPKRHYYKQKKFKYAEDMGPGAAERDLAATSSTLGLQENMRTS
The following applies: cited from earlier work.

With `Nc1ncnc2c1ncn2[C@@H]1O[C@H](COP(=O)(O)O)C(O)C1OP(=O)(O)O` (stereo partly drawn) [2′,5′-ADP], in assay [1], the “EV71 Log10 reduction” value is listed as “NO”.

Turning to `COc1ccc(CC(=O)NC(N=C(NC#N)Nc2cccc3ncccc23)C(C)(C)C)cc1OC` (stereo not drawn) [A 740003], the “P2X receptors 7” value in assay [2] (Table 9, antagonists) is “✓ ✓ (✓ ✓ activating concentration 10 nM-300 nM)”. Further, the “EV71 Log10 reduction” value in assay [1] was “NO”.

On to `O=C(O)c1cc(C(=O)O)c(C(=O)N(Cc2cccc(Oc3ccccc3)c2)[C@H]2CCCc3ccccc32)cc1C(=O)O` [A-317491], for which the “EV71 Log10 reduction” value in assay [1] is listed as “NO”.

Regarding `Cc1cc(-c2ccc(N=Nc3ccc4c(S(=O)(=O)[O-])cc(S(=O)(=O)[O-])c(N)c4c3O)c(C)c2)ccc1N=Nc1ccc2c(S(=O)(=O)[O-])cc(S(=O)(=O)[O-])c(N)c2c1O.[Na+].[Na+].[Na+].[Na+]` [Evans Blue], the “inhibition of EV71 replication (statement in words)” value (“inhibition … (statement in words)” below) in assay [3] is listed as “can also inhibit EV71 replication”.

With `O=C(CC12CC3CC(CC(C3)C1)C2)Nc1cccc2nc(NCCNCCO)ccc12` [AZ 10606120], the “EV71 Log10 reduction” value in assay [1] was “NO”.

For `O=C(Nc1cccc(C(=O)Nc2ccc(S(=O)(=O)O)c3cc(S(=O)(=O)O)cc(S(=O)(=O)O)c23)c1)Nc1cccc(C(=O)Nc2ccc(S(=O)(=O)O)c3cc(S(=O)(=O)O)cc(S(=O)(=O)O)c23)c1` [NF023, 8,8′-[carbonylbis(imino-3,1-phenylenecarbonylimino)]bis-1,3,5-naphthalene-trisulphonic acid, hexasodium salt], in assay [3], the “inhibition … (statement in words)” value is listed as “can also inhibit EV71 replication” and the “Inhibition of EV71 replication” value is recorded as “+ (+: inhibitory concentration >300 nM)”. Also, the “P2X receptors 2” value in assay [4] (Table 8, antagonists) is reported as “+ (+: inhibitory concentration >300 nM)”. Moreover, in assay [5] (Table 8, antagonists), the “P2X receptors 3” value was “+ (+: inhibitory concentration >300 nM)”. Besides, the “P2X receptors 1” value in assay [6] is “++ (key: −: no activity; +: inhibitory concentration >300 nM; ++: inhibitory concentration = 10~300 nM; +++: inhibitory concentration <10 nM)”.

As to `O=C(Nc1cc(C(=O)Nc2ccc(S(=O)(=O)[O-])cc2)cc(C(=O)Nc2ccc(S(=O)(=O)[O-])cc2)c1)Nc1cc(C(=O)Nc2ccc(S(=O)(=O)[O-])cc2)cc(C(=O)Nc2ccc(S(=O)(=O)[O-])cc2)c1.[Na+].[Na+].[Na+].[Na+]` [NF 110], the “P2X receptors 2” value in assay [4] (Table 9, antagonists) is recorded as “✓ (✓ activating concentration >300 nM)”. The “P2X receptors 3” value in assay [5] (Table 9, antagonists) is given as “✓ ✓ (✓ ✓ activating concentration 10 nM-300 nM)”. In addition, the “P2X receptors 1” value in assay [6] (Table 9, antagonists) was “✓ ✓ (✓ ✓ activating concentration 10 nM-300 nM)”. Besides, the “EV71 Log10 reduction” value in assay [1] is “NO”.

Consider `O=C1CN=C(c2cccc(Br)c2)c2oc3ccccc3c2N1` [5-BDBD], for which the “EV71 Log10 reduction” value in assay [1] was “NO”.

On to `Cc1nc(N=Nc2ccc(C(=O)O)cc2)c(COP(=O)(O)O)c(C=O)c1O` [MRS 2159], for which, in assay [6] (Table 9, antagonists), the “P2X receptors 1” value is “✓ ✓ (✓ ✓ activating concentration 10 nM-300 nM)”. Besides, in assay [1], the “EV71 Log10 reduction” value is “NO”.

As to `Clc1cccc(-c2nnnn2Cc2cccnc2)c1Cl` [A 438079], in assay [2] (Table 9, antagonists), the “P2X receptors 7” value was “✓ ✓ (✓ ✓ activating concentration 10 nM-300 nM)”. Also, the “EV71 Log10 reduction” value in assay [1] is reported as “NO”.

For `Clc1cccc(-n2nnnc2NCc2ccccc2Oc2ccccn2)c1Cl` [A 839977], in assay [2] (Table 9, antagonists), the “P2X receptors 7” value is listed as “✓ ✓ (✓ ✓ activating concentration 10 nM-300 nM)”. In assay [1], the “EV71 Log10 reduction” value is on record as “NO”.

In the case of `O=C(Nc1cccc(C(=O)Nc2cc(C(=O)Nc3ccc(S(=O)(=O)O)c4cc(S(=O)(=O)O)cc(S(=O)(=O)O)c34)ccc2F)c1)Nc1cccc(C(=O)Nc2cc(C(=O)Nc3ccc(S(=O)(=O)O)c4cc(S(=O)(=O)O)cc(S(=O)(=O)O)c34)ccc2F)c1` [NF157, 8,8′-[Carbonylbis[imino-3,1-phenylenecarbonylimino(4-fluoro-3,1-phenylene)carbonylimino]]], in assay [3], the “inhibition … (statement in words)” value is “can also inhibit EV71 replication”.

As for `Nc1ncnc2c1ncn2[C@@H](C=O)O[C@@H](C=O)COP(=O)(O)OP(=O)(O)OP(=O)(O)O` [oATP], the “P2X receptors 7” value in assay [2] (Table 9, antagonists) is “✓ ✓ (✓ ✓ activating concentration 10 nM-300 nM)”. In assay [1], the “EV71 Log10 reduction” value is recorded as “NO”.

For the compound `COc1cc(C(C)C)c(Oc2cnc(N)nc2N)cc1I` [AF353], the “EV71 Log10 reduction” value in assay [1] is recorded as “NO”.

As to `Cc1nc(N=Nc2cc(S(=O)(=O)[O-])c3cc([N+](=O)[O-])cc(S(=O)(=O)[O-])c3c2)c(COP(=O)([O-])[O-])c(C=O)c1O.[Na+].[Na+].[Na+].[Na+]` [PPNDS, Pyridoxal-5′-phosphate-6-(2′-naphthylazo-6′-nitro-4′,8′-disulfonate) tetrasodium salt], in assay [3], the “inhibition … (statement in words)” value was “can also inhibit EV71 replication” and the “Inhibition of EV71 replication” value is “++ (++: inhibitory concentration = 10~300 nM)”. The “P2X receptors 1” value in assay [6] (Table 8, antagonists) is reported as “++ (++: inhibitory concentration = 10~300 nM)”.

Take `O=C(N[C@H](Cc1cscn1)C(=O)N[C@@H](CC1CCCCC1)[C@@H](O)[C@@H](O)C1CC1)c1nc2ccccc2[nH]1` [Ro 0437626]: the “P2X receptors 1” value in assay [6] (Table 9, antagonists) is given as “✓ (✓ activating concentration >300 nM)”. For the same compound, in assay [1], the “EV71 Log10 reduction” value was “NO”.

Take `Cc1ccc(CN2CCNCC2)cc1NC(=O)CNc1ccc(F)c(F)c1` [GW 791343]: the “P2X receptors 7” value in assay [2] (Table 9, modulator, no key printed for this class) was “✓ ✓”. The “EV71 Log10 reduction” value in assay [1] is listed as “NO”.

For LVVYPWT [Spinorphin], the “P2X receptors 3” value in assay [5] (Table 9, antagonists) is reported as “✓ ✓ ✓ (✓ ✓ ✓ activating concentration <10 nM)”. Also, the “EV71 Log10 reduction” value in assay [1] is recorded as “NO”.

Turning to `CN([C@@H](Cc1ccc(OS(=O)(=O)c2cccc3cnccc23)cc1)C(=O)N1CCN(c2ccccc2)CC1)S(=O)(=O)c1cccc2cnccc12` [KN-62], the “P2X receptors 7” value in assay [2] (Table 9, antagonists) is on record as “✓ ✓ (✓ ✓ activating concentration 10 nM-300 nM)”. Besides, the “EV71 Log10 reduction” value in assay [1] was “NO”.

Take `O=C1CSC(=O)N1C(CCc1ccncc1)COc1ccc(-c2cccc([N+](=O)[O-])c2)cc1` (stereo not drawn) [AZ 11645373]: in assay [2] (Table 9, antagonists), the “P2X receptors 7” value is “✓ ✓ (✓ ✓ activating concentration 10 nM-300 nM)”. Further, the “EV71 Log10 reduction” value in assay [1] is recorded as “NO”.
